Source: the NIST ThermoML archive (doi:10.1021/je800110r)

Conditions: 333.15 K, Liquid, Vibrating tube method

CCCCCCCCCC [decane]
Conditions	mass density [kg/m3]
4738 kPa	703.8
4760 kPa	703.6
4781 kPa	703.9
4846 kPa	703.9
4874 kPa	704
4903 kPa	703.9
4957 kPa	704.1
4981 kPa	704.1
5033 kPa	704.1
5058 kPa	704
5078 kPa	704.2
5105 kPa	704.2
5125 kPa	704.1
5153 kPa	704.1
5182 kPa	704.1
5207 kPa	704.3
5223 kPa	704.3
5253 kPa	704.2
5272 kPa	704.3
5288 kPa	704.2
5306 kPa	704.4
5324 kPa	704.3
5342 kPa	704.4
5361 kPa	704.3
5380 kPa	704.3
5399 kPa	704.4
5413 kPa	704.4
5434 kPa	704.4
5450 kPa	704.5
5470 kPa	704.5
5498 kPa	704.5
5514 kPa	704.6
5530 kPa	704.6
5548 kPa	704.5
5567 kPa	704.7
5637 kPa	704.6
5652 kPa	704.6
5669 kPa	704.7
5690 kPa	704.7
5721 kPa	704.7
5735 kPa	704.7
6140 kPa	705.1
6164 kPa	705
6191 kPa	705.1
6212 kPa	705.1
6234 kPa	705.2
6252 kPa	705.2
6280 kPa	705.2
6299 kPa	705.2
6323 kPa	705.2
6345 kPa	705.3
6367 kPa	705.3
6389 kPa	705.2
6418 kPa	705.4
6437 kPa	705.3
6464 kPa	705.3
6483 kPa	705.4
6513 kPa	705.5
6533 kPa	705.4
6560 kPa	705.5
6595 kPa	705.5
6622 kPa	705.6
6882 kPa	705.7
6909 kPa	705.8
6935 kPa	705.8
6958 kPa	706
6985 kPa	705.9
7028 kPa	705.9
7059 kPa	706
7087 kPa	706
7110 kPa	706
7135 kPa	705.9
7164 kPa	706
7188 kPa	706
7209 kPa	706.1
7243 kPa	706
7268 kPa	706.2
7306 kPa	706.1
7344 kPa	706.2
8096 kPa	706.9
8122 kPa	706.9
8147 kPa	707
8166 kPa	707
8186 kPa	707
8211 kPa	707
8236 kPa	707
8262 kPa	707
8292 kPa	707
8315 kPa	707
8335 kPa	707
8358 kPa	707
8381 kPa	707.2
8505 kPa	707.3
8536 kPa	707.2
8561 kPa	707.4
8613 kPa	707.4
8638 kPa	707.3
8740 kPa	707.4
8795 kPa	707.5
8818 kPa	707.7
8851 kPa	707.6
8872 kPa	707.6
8900 kPa	707.6
8924 kPa	707.6
9353 kPa	708
9380 kPa	708.2
9411 kPa	708.1
9435 kPa	708.2
9465 kPa	708.1
9493 kPa	708.1
9570 kPa	708.3
9598 kPa	708.2
9623 kPa	708.2
9648 kPa	708.3
9680 kPa	708.2
9709 kPa	708.3
9849 kPa	708.4
9874 kPa	708.5
9908 kPa	708.6
9931 kPa	708.6
9958 kPa	708.6
9981 kPa	708.6
10004 kPa	708.6
10023 kPa	708.6
10054 kPa	708.6
10081 kPa	708.7
10109 kPa	708.7
10145 kPa	708.8
10175 kPa	708.9
10207 kPa	708.8
10231 kPa	708.8
10260 kPa	708.8
10298 kPa	708.9
10331 kPa	708.7
10354 kPa	708.9
10384 kPa	709
10403 kPa	708.9
